The supplement of paper PMC5908809

Key:
[1] = tested on: normal NK cells expanded with K562-aAPC; experiment: percent inhibition of viability; higher = more inhibition; settings: 72 h, IL-2 2.5 ng/mL
Experimental: (§1)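 Drug sensitivity and resistance testing on K562-aAPC-expanded normal NK cells: 5 concentrations (10-fold steps over a 10,000-fold range), 72 h at 37 °C, viability by CellTiter-Glo normalised to DMSO and benzethonium chloride controls; DSS from the fitted curve.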

[2] = tested on: DERL-7 (IL-2 2.5 ng/mL); experiment: as above; settings: 72 h
[3] = tested on: IMC-1 (IL-2 20 ng/mL); experiment: as above; settings: 72 h
[4] = tested on: KAI3 (IL-2 2.5 ng/mL); experiment: as above; settings: 72 h
[5] = tested on: KHYG-1 (IL-2 2.5 ng/mL); experiment: as above; settings: 72 h
[6] = tested on: NK-92 (IL-2 2.5 ng/mL); experiment: as above; settings: 72 h
[7] = tested on: NK-YS (IL-2 2.5 ng/mL); experiment: as above; settings: 72 h
[8] = tested on: NKL (IL-2 2.5 ng/mL); experiment: as above; settings: 72 h
[9] = tested on: SNK-6 (IL-2 2.5 ng/mL); experiment: as above; settings: 72 h
[10] = tested on: YT (IL-2 2.5 ng/mL); experiment: as above; settings: 72 h
[11] = tested on: normal primary NK cells, pool 1 (3 donors) (IL-2 2.5 ng/mL); experiment: as above; settings: 72 h
[12] = tested on: normal primary NK cells, pool 1 (3 donors), resting (IL-2 0 ng/mL); experiment: as above; settings: 72 h
[13] = tested on: normal primary NK cells, pool 2 (3 donors) (IL-2 2.5 ng/mL); experiment: as above; settings: 72 h
[14] = tested on: normal primary NK cells, pool 3 (3 donors) (IL-2 2.5 ng/mL); experiment: as above; settings: 72 h
[15] = tested on: normal NK cells expanded with K562-aAPC; experiment: drug sensitivity score (DSS) (DSS units); higher = more sensitive; extreme values may be limits of the assay; settings: 72 h; IL-2 2.5 ng/mL
Experimental: as §1

[16] = tested on: DERL-7 (IL-2 2.5 ng/mL); experiment: as above; settings: 72 h
[17] = tested on: IMC-1 (IL-2 20 ng/mL); experiment: as above; settings: 72 h
[18] = tested on: KAI3 (IL-2 2.5 ng/mL); experiment: as above; settings: 72 h
[19] = tested on: KHYG-1 (IL-2 2.5 ng/mL); experiment: as above; settings: 72 h
[20] = tested on: NK-92 (IL-2 2.5 ng/mL); experiment: as above; settings: 72 h
[21] = tested on: NK-YS (IL-2 2.5 ng/mL); experiment: as above; settings: 72 h
[22] = tested on: NKL (IL-2 2.5 ng/mL); experiment: as above; settings: 72 h
[23] = tested on: SNK-6 (IL-2 2.5 ng/mL); experiment: as above; settings: 72 h
[24] = tested on: YT (IL-2 2.5 ng/mL); experiment: as above; settings: 72 h
[25] = tested on: normal primary NK cells, pool 1 (3 donors) (IL-2 2.5 ng/mL); experiment: as above; settings: 72 h
[26] = tested on: normal primary NK cells, pool 1 (3 donors), resting (IL-2 0 ng/mL); experiment: as above; settings: 72 h
[27] = tested on: normal primary NK cells, pool 2 (3 donors) (IL-2 2.5 ng/mL); experiment: as above; settings: 72 h
[28] = tested on: normal primary NK cells, pool 3 (3 donors) (IL-2 2.5 ng/mL); experiment: as above; settings: 72 h

CNC(=O)CN1CCC(Oc2cc3c(Nc4cccc(Cl)c4F)ncnc3cc2OC)CC1 [Sapitinib] (max concentration tested 1000 nM)
percent inhibition of viability [%]
Settings	0.1 nM	1 nM	10 nM	100 nM	1000 nM
[1]	3.94	0.06	-2.58	3.86	22.1
[2]	3.06	0.6	-4.76	-5	-2.82
[3]	0.18	0.99	5.5	4.61	15.1
[4]	-6.57	-1.42	0.58	-5.73	11.3
[5]	0.69	2.55	10.2	2.53	4.41
[6]	-3.59	-7.59	7.58	-10.8	6.39
[7]	0.21	0.23	5.94	0.04	5.37
[8]	-6.69	-1.96	-5.01	0.25	5.26
[9]	3.05	16.8	21.3	25.7	25.6
[10]	1.69	2.8	8.28	2.39	14.2
[11]	3.61	-8.96	0.62	-8.22	4.72
[12]	6.72	-12.5	3.2	-20.9	-10.5
[13]	-5.36	0.45	2.66	4.26	5.15
[14]	-11.4	-8.98	0.1	-3.48	6.33

Settings	drug sensitivity score
[15]	1.29
[16]	0
[17]	0.17
[18]	0
[19]	0
[20]	0
[21]	0
[22]	0
[23]	8.21
[24]	0.02
[25]	0
[26]	0
[27]	0
[28]	0

Cc1cc(C)c(/C=C2\C(=O)Nc3ccccc32)[nH]1 [Semaxanib] (max concentration tested 10000 nM)
percent inhibition of viability [%]
Settings	1 nM	10 nM	100 nM	1000 nM	10000 nM
[1]	-3.94	-4.89	-0.87	-2.28	-6.44
[2]	-12.8	-10.6	-9.72	-14.2	-12.3
[3]	-3.23	1.84	-5.66	-0.69	-8.53
[4]	-2.48	-0.88	2.8	17.6	4.62
[5]	-1.36	0.11	0.12	6.34	1.2
[6]	-9.95	-0.12	2.69	-5.85	-9.23
[7]	-0.44	2.71	2.82	11.1	7.36
[8]	-13.9	-12.4	-11.4	-6.8	-21.5
[9]	11.5	16.6	-2.4	-25	-71.7
[10]	1.76	-2.52	0.26	5.87	-1.2
[11]	-10.6	-9.74	-0.67	-9.25	-0.4
[12]	-26.7	-24.9	-16.6	-29.6	-4.81
[13]	-8.9	-5	-12.5	-15.6	0.7
[14]	-10.1	-7.93	-13.2	-15.4	-11

Settings	drug sensitivity score
[15]	0
[16]	0
[17]	0
[18]	0.08
[19]	0
[20]	0
[21]	0.03
[22]	0
[23]	0
[24]	0
[25]	0
[26]	0
[27]	0
[28]	0

c1ccc2c(CCNc3ccc(Nc4ccncc4)cc3)c[nH]c2c1 [Serdemetan] (max concentration tested 10000 nM)
percent inhibition of viability [%]
Settings	1 nM	10 nM	100 nM	1000 nM	10000 nM
[1]	3.3	-0.88	-3.23	41.7	99.6
[2]	1.57	3.06	5.72	93	99.8
[3]	-3.43	-4.48	-1.24	6.25	86.2
[4]	1.77	-7.13	13.3	71.7	96.4
[5]	-4.53	-3.7	-1.91	20.5	94.6
[6]	-2.5	-9.68	-24.1	16.9	89.1
[7]	-3.94	-6.06	-3.31	54.3	93.6
[8]	-4.48	-6.86	12.5	103	96.3
[9]	1.74	-8.4	-40.5	2.69	97.8
[10]	-0.01	-0.09	2.11	16.2	89.5
[11]	-2.89	-12	-5.86	54.6	98
[12]	-1.96	-20.5	-16.5	78.3	90.8
[13]	-12.5	-4.95	-4.4	34	94.8
[14]	-9.21	-2.68	-1.24	41.2	98.2

Settings	drug sensitivity score
[15]	11
[16]	17.7
[17]	5.74
[18]	15.1
[19]	8.49
[20]	7.67
[21]	11.7
[22]	20.1
[23]	5.77
[24]	7.62
[25]	12
[26]	14
[27]	9.95
[28]	10.8

CC(C)(O)CC(=O)NCCn1ccc2ncnc(Nc3ccc(Oc4cccc(C(F)(F)F)c4)c(Cl)c3)c21 [TAK-285] (max concentration tested 2500 nM)
percent inhibition of viability [%]
Settings	0.25 nM	2.5 nM	25 nM	250 nM	2500 nM
[1]	-3.9	-5.59	-4.49	-4.65	-10.5
[2]	0.57	-0.5	-0.21	-6.99	3.24
[3]	-2.98	-2.02	-5.78	-4.36	-2.28
[4]	3.24	6.26	-7.58	2.41	-4.47
[5]	-0.17	-1.01	-1.95	2.13	-6.23
[6]	3.91	-1.52	-0.33	10.9	11.6
[7]	-1.3	-5.16	-2.82	0.41	-0.02
[8]	-13.2	-11.7	-12.7	-16.1	-29.3
[9]	5.49	3.7	-2.84	-9.96	-12.5
[10]	0.86	-3.2	0.37	1.42	-3.68
[11]	-5.45	-7.93	-3.5	-0.56	2.32
[12]	-19.2	-12	10	5.74	6.13
[13]	-6.38	-6.44	-5.09	-7.05	-6.29
[14]	-5.51	-2.63	-4.05	-8.03	-14.8

Settings	drug sensitivity score
[15]	0.89
[16]	0
[17]	0.89
[18]	0
[19]	0
[20]	0.37
[21]	0
[22]	0.89
[23]	0
[24]	0
[25]	0
[26]	0.01
[27]	0.89
[28]	0.89

Nc1nc(N)c2nc(-c3cccc(O)c3)c(-c3cccc(O)c3)nc2n1 [TG100-115] (max concentration tested 10000 nM)
percent inhibition of viability [%]
Settings	1 nM	10 nM	100 nM	1000 nM	10000 nM
[1]	-2.77	-3.08	0.07	6.14	26.9
[2]	-6.88	-4.08	5.03	-4.31	3.35
[3]	-0.94	5.84	4.32	14.9	34.2
[4]	-5.91	4.12	-4.09	-1.44	13.4
[5]	0.48	4.75	4.43	9.36	24.5
[6]	-2.65	1.92	7.95	3.09	17.8
[7]	-1.11	-1.59	0.64	4.73	8.38
[8]	-7.69	-0.08	0.45	6.08	27.7
[9]	0.36	13.3	17.1	53.8	39
[10]	1.25	2.49	4.53	4.76	12.3
[11]	6.61	-12.2	-0.36	-3.46	18.8
[12]	0.41	-21.8	-6.01	-19	16.1
[13]	-11.3	-4.42	12.3	5.35	21.7
[14]	-6.73	-4.4	7.77	-1.79	13.7

Settings	drug sensitivity score
[15]	2.01
[16]	0
[17]	2.97
[18]	0
[19]	1.47
[20]	0.35
[21]	0
[22]	2.07
[23]	10.8
[24]	0
[25]	0.36
[26]	0.1
[27]	1.02
[28]	0.09
